Assay results reported in ChEMBL document CHEMBL1157539, “Thousands of chemical starting points for antimalarial lead identification” (Nature, 2010).

Each compound was assayed on Plasmodium falciparum (assay: GSK_TCMDC: Inhibition of Plasmodium falciparum 3D7 in whole erythrocytes, using parasite LDH activity as an index of growth.). Conditions: Plasmodium falciparum, 3D7.
Type: functional, organism-based
In the case of C=CCc1cc(Cc2cnc(N)nc2N)cc(CCC)c1O, the XC50 was 986 nM.
For COc1cc([N+](=O)[O-])ccc1NC(=O)c1cc(Cl)ccc1O, the XC50 was 1140 nM.
Compound O=C(Nc1ccc(CN2CCN(S(=O)(=O)c3ccc(Cl)s3)CC2)cc1)c1cccs1 has an XC50 of 894 nM.
With COc1ccc(CNC2Cc3ccccc3C2)cc1-c1ccc(S(=O)(=O)NCCN2CCCC2)cc1 the XC50 was 582 nM.
CC(Cc1ccc(Oc2ccc(Cl)cc2)cc1)NCC(O)c1cccc(Cl)c1 (centres undefined) was tested, and the XC50 was 739 nM.
In the case of CN(C)c1ccc(-c2csc(C(=O)NCC3CCN(CCC(C)(C)C)C3)c2)cc1 (centres undefined), the XC50 was 1500 nM.
CN(C)CCn1c(=N)n(CC(O)c2ccc(Cl)c(Cl)c2)c2ccccc21 (centres undefined) showed an XC50 of 798 nM.
O=C(c1cc(OC(F)(F)F)ccc1O)N1CCN(c2ccccc2)CC1 gave an XC50 of 1050 nM.
In the case of COc1ccc(CNCc2ccccc2)cc1-c1cccc(S(=O)(=O)NCCN2CCCC2)c1, the XC50 was 786 nM.
Compound O=C(C=Cc1ccc(C(=O)Nc2ccc(C3=NCCN3)cc2)cc1)Nc1ccc(C2=NCCN2)cc1 has an XC50 of 34.7 nM.
COc1ccc(-c2csc(N(CCCN(C)C)C(=O)c3cc4c(C)nn(-c5ccccc5)c4s3)n2)cc1 gave an XC50 of 623 nM.
CCCc1cc(Cc2cnc(N)nc2N)c2cccnc2c1OC was tested, and the XC50 was 675 nM.
CC(C)CC(=O)N1CCNC[C@@H]1C(=O)NCCSCc1c(F)cccc1Cl was tested, and the XC50 was 1200 nM.
Compound CCOC(=O)c1cc(C(=O)NCCCCN2CCC(c3cn(C)c4ccccc34)CC2)ccc1-c1ccc(C(F)(F)F)cc1 has an XC50 of 1200 nM.
Work on O=C(CSc1nccn1C1CCCC1)Nc1cc(C(F)(F)F)ccc1Cl yielded an XC50 of 382 nM.
With N#Cc1ccc2c(c1)CN(C1CCC(NC(=O)C3=Cc4cc(Cl)ccc4OC3)CC1)CCC2 (centres undefined) the XC50 was 1330 nM.
For FC(F)(F)c1ccc2[nH]c(-c3ccc(-c4ccc(CNCc5cnn(-c6ccccc6)n5)cc4)cc3)nc2c1, the XC50 was 433 nM.
CCCCCCCN1CC[C@@H](C[C@H](N)Cc2ccnc3ccc(OC)cc23)[C@@H](CC)C1 showed an XC50 of 1070 nM.
N#Cc1ccc(S(=O)(=O)N2C(c3cccc([N+](=O)[O-])c3)C(C(=O)c3ccccc3)N(C3CCCCC3)C2c2cccc([N+](=O)[O-])c2)cc1 (centres undefined) gave an XC50 of 1080 nM.
For COc1ccc(Cl)cc1-c1nc(C(=O)NCCN2CCCCC2)c(C)s1, the XC50 was 938 nM.
c1ccc2c(CNCCCCCCNCc3c(OCC4CC4)ccc4ccccc34)c(OCC3CC3)ccc2c1 showed an XC50 of 928 nM.
Compound O=C(Nc1ccc(Cl)c(Cl)c1)N(Cc1ccccc1Br)C1CCNCC1 has an XC50 of 1030 nM.
Work on CCCc1ccc(C2CCN(CCCCNC(=O)c3ccc(NC(=O)c4ccc(Cl)cc4)cc3)CC2)cc1 yielded an XC50 of 628 nM.
O=c1cc(NCCCNCc2scc3c(Cl)cc(C(F)(F)F)nc23)[nH]c2ccccc12 gave an XC50 of 754 nM.
Brc1ccc(Nc2nc(NCC3CCCO3)c3ccccc3n2)cc1 (centres undefined) showed an XC50 of 584 nM.
COc1ccc(-c2nnc(Sc3ccc(C#N)c([N+](=O)[O-])c3)n2CC(C)C)cc1 gave an XC50 of 821 nM.
CC(=O)N/N=C/[C@H](CCc1ccccc1)NC(=O)[C@H](CC(C)C)NC(=O)c1ccc(F)cc1 was tested, and the XC50 was 692 nM.
For COc1cc2nc(NCc3cccc(CNC(=O)c4ccc(-c5ccc(C(C)=O)cc5)cc4)c3)nc(N)c2cc1OC, the XC50 was 118 nM.
Cc1[nH]c(CNCCCNc2cc(=O)c3ccccc3[nH]2)c(Br)c1Br gave an XC50 of 1040 nM.
CC(=O)Nc1ccc(C(=O)N2CCN(c3ccnc4cc(Cl)ccc34)CC2)cc1 was tested, and the XC50 was 909 nM.
Oc1ccc(CCNc2nc(NCCCOc3ccccc3-c3ccncc3)nc(N3CCNCC3)n2)cc1 was tested, and the XC50 was 1110 nM.
For Cc1c(CNCCCNc2nc3cscc3[nH]2)sc(C(F)F)c1Br, the XC50 was 936 nM.
For CC(=O)CCc1ccc(OCCN(Cc2ccccc2C(F)(F)F)c2ccc(C#N)c(C(F)(F)F)c2)cc1, the XC50 was 267 nM.
CC1(C)N=C(N)N=C(N)N1OCCCCON1C(N)=NC(N)=NC1(C)C was tested, and the XC50 was 66 nM.
With O=S(=O)(ON=C1CCc2ccccc21)c1ccc(Cl)cc1 the XC50 was 1310 nM.
Compound CN1CCCN(Cc2cccc(-c3cccc(NC(=O)c4ccc(Cl)cc4)c3)c2)CC1 has an XC50 of 922 nM.
Compound COc1ccc2ncc(F)c([C@@H](O)CN3CCC(NCc4cc5c(cn4)OCCO5)CC3)c2c1 has an XC50 of 140 nM.
Cc1cnc2cc3c(cc2c1N1CCN(C)CC1)NCC3 was tested, and the XC50 was 779 nM.
In the case of CC(C)CCN1CCC(Oc2ccc(NC(=O)c3ccc(F)cc3)cc2Cl)CC1, the XC50 was 725 nM.
